Earlier results, collected in patent US20240285564A1, “USE OF (S)-3-AMINO-4-(DIFLUOROMETHYLENYL)CYCLOPENT-1-ENE-1-CARBOXYLIC ACID FOR GASTROINTESTINAL TRACT DISORDERS AND AS AN IMMUNOMODULATORY AGENT” (Ovid Therapeutics Inc., priority 2023, published 2024).

How the values were obtained:
[1] = molecular target: aspartate aminotransferase (Asp-AT)
[2] = molecular target: alanine aminotransferase (Ala-AT)
[3] = molecular target: T1, OAT (Homo sapiens, UniProt P04181)
T1 sequence (P04181 36-439 limits assumed): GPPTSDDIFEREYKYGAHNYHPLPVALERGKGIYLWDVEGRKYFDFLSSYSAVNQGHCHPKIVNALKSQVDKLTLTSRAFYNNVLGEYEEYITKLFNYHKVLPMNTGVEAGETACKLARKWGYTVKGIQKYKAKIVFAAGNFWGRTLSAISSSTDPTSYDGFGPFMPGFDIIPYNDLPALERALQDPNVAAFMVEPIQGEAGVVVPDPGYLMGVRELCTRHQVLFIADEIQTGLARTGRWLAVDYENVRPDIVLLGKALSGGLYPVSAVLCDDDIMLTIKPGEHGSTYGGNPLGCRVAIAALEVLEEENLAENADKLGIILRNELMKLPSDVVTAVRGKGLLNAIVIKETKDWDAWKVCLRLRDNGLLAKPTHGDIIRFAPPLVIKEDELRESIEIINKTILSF

[4] = read-out: IC50 (reversible inhibition)

Compound	IC50 [1, 4]	IC50 [2, 4]	kintact [3]	kintact/KI [3]	times more efficient an inactivator of OAT than CPP-115 ([3]; relative to CPP-115)	inactivation or inhibition of off-target enzyme [1]	inactivation or inhibition of off-target enzyme [2]	Ki [3]
N[C@H]1C=C(C(=O)O)CC1=C(F)F [(S)-3-amino-4-(difluoromethylenyl)cyclopent-1-ene-1-carboxylic acid]	> 4000 µM	> 4000 µM	0.025 min⁻¹	127 M⁻¹ s⁻¹	9.0 times	–	–	–
N[C@H]1C[C@@H](C(=O)O)CC1=C(F)F [CPP-115, (1S,3S)-3-amino+difluoromethylenyl-1-cyclopentanoic acid, reference compound]	–	–	0.097 min⁻¹	–	–	not to inactivate or inhibit	not to inactivate or inhibit	116 µM
